Data on 18 compounds can be found in patent US20140243374A1, “Novel Sulfonamides” (The Brigham and Women's Hospital, Inc., priority 2011, published 2014).

Each structure is given as a SMILES string. “And” between values parts separate entries of the source, which are not always exact repeats. Identical values can stand only once.

Series [1] deals with T1, γ-secretase (cleavage of APP, Aβ42) (Homo sapiens, UniProt P49768).
T1 construct: endogenous in cells; host or cells: HEK AP-GL-T16 luciferase reporter cells (tetracycline-induced APP substrate)
Nature of the series: Aβ (1-42) cellular assay (Aβ ELISA, HEK AP-GL-T1 6 cells). The series is classed as cell-based. To be noted: for IC50: cellular Aβ42 ELISA, 24 h compound treatment. As to the method: Aβ (1-42) Cellular Assay.
The following assay was used to determine the extent to which the compounds of interest inhibit the cleavage of APP in vivo. AβELISA is a commercial fluorometric kit from Biosource (Invitrogen 89344). Luciferase reporter HEK AP-GL-T1 6 cells were plated at 50,000 cells/well in 96 well plates in DMEM media containing 10% tetracyclin free […], 250 μg/mL zeocin, 200 μg/mL hygromycin, and 5 μg/mL blasticidin. Compounds were added 24 h after plating and APP processing is induced simultaneously by addition of tetracycline. Following a 24 h compound treatment, […] of conditioned cell media is collected, mixed with ELISA diluent buffer containing 2 mM AEBSF and 12 mM o-phenanthroline, and immediately frozen at −80° C. For the ELISA, the samples were brought to room temperature and spun at 5000 rpm for 5 min. Samples ([…]) are incubated in the ELISA plate with […] detection antibody on a shaker at room temperature for 3 h. Wells were then washed 4 times with wash buffer and 100 mL of secondary antibody are added and incubated at room temperature for 30 min. Wells were again washed 4 times with wash buffer and 100 mL of fluorescent substrate solution are added. After 30 minutes of incubation, fluorescent signals are determine on a Gemini reader at ex 460 nm and em 560 nm. The amount of Aβ levels in each sample was determined from a standard curve generated by known concentrations of Aβ peptide run simultaneously with the samples.
On the technique in general: In an ELISA, binding on a coated surface is turned into a signal by an enzyme label.

Series [2] concerns the target T2, γ-secretase (cleavage of Notch) (Homo sapiens, UniProt P49768).
T2 construct: endogenous in cells; host or cells: U2OS luciferase reporter cells with Tet-on Notch
Nature of the series: Notch cellular assay (luciferase reporter U2OS cells). The series is classed as cell-based. The conditions noted are these: for IC50: U2OS luciferase reporter cells; for Notch Luc/Aβ42: ratio Notch luciferase IC50 to Aβ42 IC50. As to the method: This assay was used to determine if the compounds of interest inhibit the cleavage of Notch by γ-secretase in cells. A U2OS cell line in which the luciferase expression is adjusted by active Notch was used in this assay Notch expression is adjusted using Tet-on promoter. Luciferase reporter U2OS cells are plated at 1000 cells/well in 96 well plates in DMEM containing 100 μg/mL hygromycin, 15 μg/mL blasticidin and 1 μg/mL Tetracycline. Compounds were added 24 h after plating and the cells are lysed 6 days after adding compounds. Luciferase expression was performed using Steady-Glo Luciferase Assay System (Promega).
A general note: Reporter assays use an easily measured gene product as a stand-in for the process of interest.

The target of series [3] is T3, γ-secretase (Notch cleavage activity) (Homo sapiens, UniProt P49768).
T3 construct: endogenous in cells; host or cells: SUP-T1 cells
Nature of the series: Cleaved Notch1 Sandwich ELISA (SUP-T1 cell line). The series is classed as cell-based. The conditions noted are these: for IC50: SUP-T1 cells, 16 h; for Notch Elisa/Aβ42: ratio Notch Elisa IC50 to Aβ42 IC50. As to the method:
Cleaved Notch1 Sandwich ELISA.
This assay was used to determine if the compounds of interest inhibit the Notch cleavage activity of γ-secretase in SUP-T1 cell line, which endogenously expresses a truncated Notch receptor fragment that is a viable gamma-secretase substrate. The base medium for this cell line is ATCC-formulated RPMI-1640 Medium with fetal bovine serum to a final concentration of 10%. Prepare dilution of SUP-T1 cells in complete growth medium to 1.0×10^6 cells/mL, seed 1.5 mL per well of each cell dilution into a 6-well plate. Collect cells treated with serial diluted compounds in DMSO after 16 h, then using equal amount of protein isolated from samples to measure Notch intracellular cleavage by PathScan® Sandwich ELISA Kit (Cell Signaling Tech 7194S).

Usually IC50 stands for the concentration that gives 50% inhibition. High values mean weaker potency, low ones greater potency. Regarding `O=C(O)c1ccc(CN(C2CCCCC2F)S(=O)(=O)c2ccc(Cl)cc2)cc1` (single isomer, unassigned) [Example 58, 4-((4-Chloro-N-(2-fluorocyclohexyl)phenylsulfonamido)methyl)benzoic acid], the IC50 in series [1] was 341 nM and 686 nM and 207 nM; in series [2], 259 µM; in series [3] it was 10100 nM. In addition, the “Notch Luc/Aβ42” value in series [2] (listed as 58/1231A) was found to be 630. The “Notch Elisa/Aβ42” value in series [3] (listed as 58/1231A) is 25.
Regarding `O=C(O)c1ccc(CN(C2CCCCC2F)S(=O)(=O)c2ccc(Cl)cc2)cc1` (single isomer, unassigned) [Example 59, 4-((4-Chloro-N-(2-fluorocyclohexyl)phenylsulfonamido)methyl)benzoic acid], the IC50 is 60.7 nM and 195 nM and 101 nM in series [1]; 9.4 µM in series [2]; 2930 nM in series [3]. Further, the “Notch Luc/Aβ42” value in series [2] (listed as 59/1231B) is given as 79. Moreover, the “Notch Elisa/Aβ42” value in series [3] (listed as 59/1231B) is on record as 25.
Usually melting point stands for the temperature, or range, at which the solid turns liquid. Consider `O=C(O)c1ccc(CN(C2CCOCC2)S(=O)(=O)c2ccc(Cl)cc2)cc1` [Example 1, 4-((4-Chloro-N-(tetrahydro-2H-pyran-4-yl)phenylsulfonamido)methyl)benzoic acid], for which the melting point is 218 to 219 °C. Moreover, in series [1] (at 1 μM (concentration in brackets), read-out: Aβ42 % Inh), the inhibition at 1 µM turned out to be 6%.
Turning to `COC(=O)c1ccc(CN(C2CCCCC2C)S(=O)(=O)c2ccc(Cl)cc2)cc1` (stereo not shown) [Example 2, Methyl 4-((4-chloro-N-(2-methylcyclohexyl)phenylsulfonamido)methyl)benzoate], the IC50 in series [1] is 3.4 nM; in series [2], 3 µM.
In the case of `CC1CCCCC1N(Cc1ccc(C(=O)N[C@H](C)CO)cc1)S(=O)(=O)c1ccc(Cl)cc1` (stereo partly drawn) [Example 4, 4-((4-Chloro-N-(2-methylcyclohexyl)phenylsulfonamido)methyl)-N-((R)-1-hydroxypropan-2-yl)benzamide], the IC50 in series [1] was 0.87 nM and 0.65 nM and 0.89 nM; in series [3] it was 180 nM and 120 nM. Moreover, the “Notch Luc/Aβ42” value in series [2] was 2950. Moreover, the “Notch Elisa/Aβ42” value in series [3] is reported as 188.
With `COC[C@@H](C)NC(=O)c1ccc(CN(C2CCCCC2C)S(=O)(=O)c2ccc(Cl)cc2)cc1` (stereo partly drawn) [Example 14, 4-((4-Chloro-N-(2-methylcyclohexyl)phenylsulfonamido)methyl)-N-((R)-1-methoxypropan-2-yl)benzamide], the figures for the IC50 in series [1], in series [2] and in series [3] were 0.7 nM, 0.303 µM and 710 nM, respectively. Moreover, the “Notch Luc/Aβ42” value in series [2] (listed as 14/1136) is on record as 433. Besides, in series [3], the “Notch Elisa/Aβ42” value is 1014.
As to `CC[C@@H](C1CCCC1)N(Cc1ccc(C(=O)OC)cc1)S(=O)(=O)c1ccc(Cl)cc1` [Example 21, (S)-Methyl 4-((4-chloro-N-(1-cyclopentylpropyl)phenylsulfonamido)methyl)benzoate], 24 nM corresponded to half-maximal inhibition in series [1] (IC50). In addition, in series [2], the IC50 worked out at 13 µM and the “Notch Luc/Aβ42” value is listed as 542.
Taken in the same sequence, the figures for `CC1CCCCC1N(Cc1ccc(C(=O)NCCC(=O)O)cc1)S(=O)(=O)c1ccc(Cl)cc1` (stereo not shown) [Example 36, 3-(4-((4-Chloro-N-(2-methylcyclohexyl)phenylsulfonamido)methyl)benzamido)propanoic acid] were 80.7 nM, 4.58 µM and 57.
`CC1CCCCC1N(Cc1ccc(C(=O)NCCN(C)C)cc1)S(=O)(=O)c1ccc(Cl)cc1` (stereo not shown) [Example 40, 4-((4-Chloro-N-(2-methylcyclohexyl)phenylsulfonamido)methyl)-N-(2-(dimethylamino)ethyl)benzamide]: the concentration for half-maximal inhibition (IC50) in series [1] worked out at 2.56 nM; in series [2], 3.03 µM.
With `COC[C@@H](C)NC(=O)c1ccc(CN(C2CCCCC2C)S(=O)(=O)c2ccc(Cl)cc2)cc1` (stereo partly drawn) [Example 46, 4-((4-Chloro-N-(2-methylcyclohexyl)phenylsulfonamido)methyl)-N-((R)-1-methoxypropan-2-yl)benzamide], the IC50 was 0.7 nM in series [1], 0.303 µM in series [2] and 710 nM in series [3]. Moreover, in series [2] (listed as 46/1221), the “Notch Luc/Aβ42” value came to 432.
As to `CC1CCCCC1N(Cc1ccc(C(=O)NC[C@H](C)O)cc1)S(=O)(=O)c1ccc(Cl)cc1` (stereo partly drawn) [Example 47, 4-((4-Chloro-N-(2-methylcyclohexyl)phenylsulfonamido)methyl)-N—((S)-2-hydroxypropyl)benzamide], the IC50 in series [1] turned out to be 0.873 nM. In series [2], the IC50 stood at 0.69 µM and the “Notch Luc/Aβ42” value is 791. Moreover, in series [3], the IC50 came to 350 nM and the “Notch Elisa/Aβ42” value amounted to 401.
Taken in the same sequence, the figures for `CC(=O)CNC(=O)c1ccc(CN(C2CCCCC2C)S(=O)(=O)c2ccc(Cl)cc2)cc1` (stereo not shown) [Example 48, 4-((4-Chloro-N-(2-methylcyclohexyl)phenylsulfonamido)methyl)-N-(2-oxopropyl)benzamide] were 0.715 nM, 0.182 µM, 260, 220 nM and 314.
Regarding `CC1CCCC(N(Cc2ccc(C(=O)N[C@H](C)CO)cc2)S(=O)(=O)c2ccc(Cl)cc2)C1` (stereo partly drawn) [Example 50, 4-((4-Chloro-N-(3-methylcyclohexyl)phenylsulfonamido)methyl)-N—((R)-1-hydroxypropan-2-yl)benzamide], in series [1], the midpoint of inhibition, the IC50, lay at 7.32 nM. Moreover, in series [2], half-maximal inhibition (IC50) required 10.6 µM and the “Notch Luc/Aβ42” value worked out at 1456. Moreover, in series [3], the IC50 came to 2160 nM and the “Notch Elisa/Aβ42” value is 309.
Take `O=C(O)c1ccc(CN(C2CCCC(C(F)(F)F)C2)S(=O)(=O)c2ccc(Cl)cc2)cc1` (stereo not shown) [Example 51, 4-((4-Chloro-N-(3-(trifluoromethyl)cyclohexyl)phenylsulfonamido)methyl)benzoic acid]: the IC50 turned out to be 62.2 nM in series [1] and 3.23 µM in series [2]. In series [2], the “Notch Luc/Aβ42” value was determined as 52.
For `CC1CCCCC1N(Cc1ccc(C(=O)NCC(F)(F)F)cc1)S(=O)(=O)c1ccc(Cl)cc1` (stereo not shown) [Example 54, 4-((4-Chloro-N-(2-methylcyclohexyl)phenylsulfonamido)methyl)-N-(2,2,2-trifluoroethyl)benzamide] the same measures were 2.61 nM, 0.574 µM and 220.
In series [1], `CC1CCCCC1N(Cc1ccc(C(=O)NCCC(F)(F)F)cc1)S(=O)(=O)c1ccc(Cl)cc1` (stereo not shown) [Example 55, 4-((4-Chloro-N-(2-methylcyclohexyl)phenylsulfonamido)methyl)-N-(3,3,3 trifluoropropyl)benzamide] gave an IC50 of 4.3 nM. In addition, in series [2], the IC50 was 1.1 µM and the “Notch Luc/Aβ42” value was found to be 256.
As for `O=C(O)c1ccc(CN(C2CCCCC2F)S(=O)(=O)c2ccc(Cl)cc2)cc1` (stereo not shown) [Example 57, 4-((4-Chloro-N-(2-fluorocyclohexyl)phenylsulfonamido)methyl)benzoic acid], the 50% inhibitory concentration (IC50) in series [1] is 50.1 nM and 79.6 nM and 98.5 nM; in series [2], 28.6 µM; in series [3] it was 1070 nM. In addition, in series [2] (listed as 57/1231), the “Notch Luc/Aβ42” value is 376. For the same compound, the “Notch Elisa/Aβ42” value in series [3] (listed as 57/1231) worked out at 14.
Compound `COCC(C)NC(=O)c1ccc(CN(C2CCCCC2F)S(=O)(=O)c2ccc(Cl)cc2)cc1` (stereo not shown) [Example 85, 4-((4-Chloro-N-(2-fluorocyclohexyl)phenylsulfonamido)methyl)-N-(1-methoxypropan-2-yl)benzamide] registered an IC50 in series [1] of 13.3 nM. Further, in series [3], the IC50 was found to be 1180 nM and the “Notch Elisa/Aβ42” value is given as 89.
